In PubChem BioAssay (NCI):
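The compound was tested at five concentrations on cells cultured in 96-well plates, with a 48-hour exposure period. GI50 marks 50% less growth. At the TGI there is no net growth.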

Assays:
Test in all cases: NCI-60 cell line screen, 48 h
SK-MEL-2 melanoma = test system: SK-MEL-2 melanoma
RXF 393 renal = test system: RXF 393 renal
MCF7 breast = test system: MCF7 breast
RPMI-8226 leukemia = test system: RPMI-8226 leukemia
OVCAR-4 ovarian = test system: OVCAR-4 ovarian
HT29 colon = test system: HT29 colon
EKVX NSCLC = test system: EKVX NSCLC
NCI-H23 lung = test system: NCI-H23 lung
UO-31 renal = test system: UO-31 renal
SK-MEL-5 melanoma = test system: SK-MEL-5 melanoma

| SMILES | GI50 (SK-MEL-2 melanoma) [µM] | TGI (SK-MEL-2 melanoma) [µM] | GI50 (RXF 393 renal) [nM] | TGI (RXF 393 renal) [µM] | GI50 (MCF7 breast) [nM] | TGI (MCF7 breast) [µM] | GI50 (RPMI-8226 leukemia) [nM] | TGI (RPMI-8226 leukemia) [µM] | GI50 (OVCAR-4 ovarian) [µM] | TGI (OVCAR-4 ovarian) [µM] | GI50 (HT29 colon) [nM] | TGI (HT29 colon) [µM] | GI50 (EKVX NSCLC) [nM] | TGI (EKVX NSCLC) [µM] | GI50 (NCI-H23 lung) [nM] | TGI (NCI-H23 lung) [µM] | GI50 (UO-31 renal) [nM] | TGI (UO-31 renal) [nM] | GI50 (SK-MEL-5 melanoma) [nM] | TGI (SK-MEL-5 melanoma) [µM] |
| --- | --- | --- | --- | --- | --- | --- | --- | --- | --- | --- | --- | --- | --- | --- | --- | --- | --- | --- | --- | --- |
| Cc1cncc2cccc(S(=O)(=O)N3CCCNC[C@@H]3C)c12 | 61 | > 100 | 1820 | 19.8 | 11500 | > 100 | 42800 | > 100 | > 100 | > 100 | 29300 | > 100 | 47400 | > 100 | 31500 | > 100 | 2160 | 23800 | > 64100 | > 100 |
| Cc1cccc(Cc2cnc(NC(=O)/C=C/c3ccco3)s2)c1 | 0.0737 | > 100 | 22.1 | 0.0643 | 33.1 | > 100 | 40.3 | > 100 | 1.59 | > 100 | 37.3 | > 100 | 58.1 | > 100 | 108 | > 100 | 84.7 | > 100000 | 35.4 | 3.36 |
| CCN(CC)CCn1nc2c3c(cccc3c1=O)-c1ccccc1-2 | 3.79 | 13 | 2050 | 8.09 | 715 | 3.51 | 3190 | 24.2 | 3.33 | 26 | 1890 | 13.2 | 2330 | 38.7 | 1820 | 8.98 | 1250 | > 50000 | 1510 | 4.08 |
| CO[C@H]1/C=C/C=C/C=C/C[C@H](OC(=O)[C@@H](C)NC(=O)C2CCCCC2)[C@H](C)[C@@H](O)/C(C)=C\CCC2=CC(=O)C=C(NC(=O)C1)C2=O | 0.131 | 0.715 | 94.5 | 0.346 | 130 | 3.54 | 111 | 0.327 | 0.225 | 2.84 | 80.1 | 0.513 | 174 | 2.25 | 115 | 0.812 | 352 | 2790 | 84.5 | 0.521 |
| N#CSc1cc(-c2nc3ccccc3o2)ccc1N | 40.7 | > 74.3 | 965 | 26.3 | 14500 | > 84.8 | 15900 | 53 | 30.5 | > 100 | 37700 | > 100 | 5000 | 37.2 | 19500 | > 86.1 | 22600 | > 59400 | 11100 | 29.2 |
| NC(=S)c1cn(C2OC(CO)C(O)C2O)c2ncnc(N)c12 (centres undefined) | 0.175 | 0.605 | 307 | > 100 | 67.3 | 0.303 | 99 | 0.448 | 0.081 | 4.21 | 181 | 3.96 | 250 |  | 139 | 0.677 | 275 | 1680 | 223 | 0.975 |
| COc1ccc(C(=O)C(CN(C)C)c2ccccc2)cc1 (centres undefined) | 3.09 | 7.97 | 1320 | 3.1 | 1900 | 5.98 | 1880 | > 100 | 5.34 | > 100 | 3800 | 21.4 | 14100 | 34.1 | 1560 | 3.32 | 1430 | 2740 | 4220 | 15.4 |
